Legend:
[1] = target: Ephrin type-B receptor 1 (Homo sapiens) (UniProt P54762); details: Compound concentration 1000.0 nM
[2] = tested on: Tyrosine-protein kinase ABL1 (Homo sapiens), P00519 [F317L]; details: Compound concentration 1000.0 nM
[3] = target: Bone morphogenetic protein receptor type-1B (Homo sapiens) (UniProt O00238); details: Compound concentration 1000.0 nM
[4] = target: D(2) dopamine receptor (Homo sapiens) (UniProt P14416); details: Compound concentration 10.0 uM
[5] = target: Dual specificity protein kinase CLK4 (Homo sapiens) (UniProt Q9HAZ1); details: Compound concentration 1000.0 nM
[6] = target: Dual specificity mitogen-activated protein kinase kinase 1 (Homo sapiens) (UniProt Q02750); details: Compound concentration 1000.0 nM
[7] = target: Serine/threonine-protein kinase 38-like (Homo sapiens) (UniProt Q9Y2H1); details: Compound concentration 1000.0 nM
[8] = tested on: Tyrosine-protein kinase ABL1 (Homo sapiens), P00519 [Y253F]; details: Compound concentration 1000.0 nM
[9] = target: Muscarinic acetylcholine receptor M1 (Homo sapiens) (UniProt P11229); details: Compound concentration 10.0 uM
Rattus norvegicus = species on record: Rattus norvegicus; details: Compound concentration 10.0 uM
[10] = target: Eukaryotic translation initiation factor 2-alpha kinase 1 (Homo sapiens) (UniProt Q9BQI3); details: Compound concentration 1000.0 nM
[11] = target: cAMP-dependent protein kinase catalytic subunit beta (Homo sapiens) (UniProt P22694); details: Compound concentration 1000.0 nM
[12] = target: Alpha-2A adrenergic receptor (Homo sapiens) (UniProt P08913); details: Compound concentration 10.0 uM
[13] = tested on: Epidermal growth factor receptor (Homo sapiens), P00533 [L858R,T790M]; details: Compound concentration 1000.0 nM
[14] = target: Tyrosine-protein kinase JAK1 (Homo sapiens) (UniProt P23458); details: Compound concentration 1000.0 nM
[15] = target: Mitogen-activated protein kinase kinase kinase kinase 4 (Homo sapiens) (UniProt O95819); details: Compound concentration 1000.0 nM
[16] = target: Tyrosine-protein kinase Yes (Homo sapiens) (UniProt P07947); details: Compound concentration 1000.0 nM
[17] = target: Fibroblast growth factor receptor 4 (Homo sapiens) (UniProt P22455); details: Compound concentration 1000.0 nM
[18] = target: Receptor-type tyrosine-protein kinase FLT3 (Homo sapiens) (UniProt P36888); details: Compound concentration 1000.0 nM
[19] = target: Serine/threonine-protein kinase TAO1 (Homo sapiens) (UniProt Q7L7X3); details: Compound concentration 1000.0 nM
[20] = target: Ribosomal protein S6 kinase alpha-3 (Homo sapiens) (UniProt P51812); details: Compound concentration 1000.0 nM
[21] = target: Ephrin type-A receptor 1 (Homo sapiens) (UniProt P21709); details: Compound concentration 1000.0 nM
[22] = target: Rhodopsin kinase GRK7 (Homo sapiens) (UniProt Q8WTQ7); details: Compound concentration 1000.0 nM
[23] = target: Tyrosine-protein kinase JAK1 (Homo sapiens) (UniProt P23458); details: Compound concentration 1000.0 nM; remark: listed apart in the source
[24] = target: Muscarinic acetylcholine receptor M5 (Homo sapiens) (UniProt P08912); details: Compound concentration 10.0 uM
[25] = target: Misshapen-like kinase 1 (Homo sapiens) (UniProt Q8N4C8); details: Compound concentration 1000.0 nM
[26] = target: Serine/threonine-protein kinase MRCK gamma (Homo sapiens) (UniProt Q6DT37); details: Compound concentration 1000.0 nM
[27] = target: Macrophage colony-stimulating factor 1 receptor (Homo sapiens) (UniProt P07333); details: Compound concentration 1000.0 nM
[28] = target: Serine/threonine-protein kinase TBK1 (Homo sapiens) (UniProt Q9UHD2); details: Compound concentration 1000.0 nM
[29] = target: Tyrosine-protein kinase JAK3 (Homo sapiens) (UniProt P52333); details: Compound concentration 1000.0 nM
[30] = target: Serine/threonine-protein kinase TNNI3K (Homo sapiens) (UniProt Q59H18); details: Compound concentration 1000.0 nM
[31] = target: Inhibitor of nuclear factor kappa-B kinase subunit epsilon (Homo sapiens) (UniProt Q14164); details: Compound concentration 1000.0 nM
[32] = target: Serine/threonine-protein kinase STK11 (Homo sapiens) (UniProt Q15831); details: Compound concentration 1000.0 nM
[33] = target: Mitogen-activated protein kinase kinase kinase kinase 5 (Homo sapiens) (UniProt Q9Y4K4); details: Compound concentration 1000.0 nM
[34] = target: Calcium/calmodulin-dependent protein kinase kinase 1 (Homo sapiens) (UniProt Q8N5S9); details: Compound concentration 1000.0 nM
[35] = target: Serine/threonine-protein kinase Nek7 (Homo sapiens) (UniProt Q8TDX7); details: Compound concentration 1000.0 nM
[36] = target: Serine/threonine-protein kinase 32A (Homo sapiens) (UniProt Q8WU08); details: Compound concentration 1000.0 nM
[37] = target: Mitogen-activated protein kinase kinase kinase kinase 2 (Homo sapiens) (UniProt Q12851); details: Compound concentration 1000.0 nM
[38] = tested on: Tyrosine-protein kinase ABL1 (Homo sapiens), P00519 [T315I]; details: Compound concentration 1000.0 nM
[39] = tested on: Phosphatidylinositol 4,5-bisphosphate 3-kinase catalytic subunit alpha isoform (Homo sapiens), P42336 [H1047L]; details: Compound concentration 1000.0 nM
[40] = tested on: Epidermal growth factor receptor (Homo sapiens), P00533 [UNDEFINED MUTATION]; details: Compound concentration 1000.0 nM
[41] = target: Serine/threonine-protein kinase N1 (Homo sapiens) (UniProt Q16512); details: Compound concentration 1000.0 nM
[42] = target: 3-phosphoinositide-dependent protein kinase 1 (Homo sapiens) (UniProt O15530); details: Compound concentration 1000.0 nM
[43] = target: Tyrosine-protein kinase Srms (Homo sapiens) (UniProt Q9H3Y6); details: Compound concentration 1000.0 nM
[44] = target: Alpha-1B adrenergic receptor (Homo sapiens) (UniProt P35368); details: Compound concentration 10.0 uM

Sequence of Tyrosine-protein kinase JAK1 (Homo sapiens) (P23458 whole entry): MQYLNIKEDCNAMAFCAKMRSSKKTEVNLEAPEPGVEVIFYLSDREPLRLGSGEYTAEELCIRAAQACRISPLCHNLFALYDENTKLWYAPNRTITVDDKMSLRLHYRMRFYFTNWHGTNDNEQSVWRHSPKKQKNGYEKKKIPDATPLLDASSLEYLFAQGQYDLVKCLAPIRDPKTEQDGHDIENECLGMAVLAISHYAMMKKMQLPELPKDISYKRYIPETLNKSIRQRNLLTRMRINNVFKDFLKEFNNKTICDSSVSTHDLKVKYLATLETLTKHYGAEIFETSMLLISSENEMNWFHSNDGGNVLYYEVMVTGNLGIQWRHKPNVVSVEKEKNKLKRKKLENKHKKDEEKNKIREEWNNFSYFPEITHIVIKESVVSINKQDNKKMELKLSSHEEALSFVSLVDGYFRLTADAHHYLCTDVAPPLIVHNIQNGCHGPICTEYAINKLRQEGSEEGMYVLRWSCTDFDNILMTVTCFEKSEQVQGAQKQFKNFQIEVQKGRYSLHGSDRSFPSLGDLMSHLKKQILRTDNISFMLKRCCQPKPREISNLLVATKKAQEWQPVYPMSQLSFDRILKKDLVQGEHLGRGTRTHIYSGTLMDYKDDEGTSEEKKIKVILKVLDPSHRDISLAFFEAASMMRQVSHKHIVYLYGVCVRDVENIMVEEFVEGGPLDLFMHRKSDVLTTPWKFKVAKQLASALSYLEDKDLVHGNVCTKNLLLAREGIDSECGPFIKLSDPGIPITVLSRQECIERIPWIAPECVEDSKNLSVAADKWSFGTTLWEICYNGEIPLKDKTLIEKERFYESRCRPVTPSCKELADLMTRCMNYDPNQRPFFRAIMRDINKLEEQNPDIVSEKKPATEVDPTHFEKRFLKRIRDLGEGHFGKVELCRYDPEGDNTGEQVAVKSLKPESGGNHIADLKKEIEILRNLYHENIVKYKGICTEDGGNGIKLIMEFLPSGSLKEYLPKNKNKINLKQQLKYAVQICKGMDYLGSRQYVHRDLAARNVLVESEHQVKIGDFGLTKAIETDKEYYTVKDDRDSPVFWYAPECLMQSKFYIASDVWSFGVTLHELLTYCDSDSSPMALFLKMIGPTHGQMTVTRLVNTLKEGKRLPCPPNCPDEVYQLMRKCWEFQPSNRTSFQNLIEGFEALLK
Sequence of Calcium/calmodulin-dependent protein kinase kinase 1 (Homo sapiens) (Q8N5S9 whole entry, looked up): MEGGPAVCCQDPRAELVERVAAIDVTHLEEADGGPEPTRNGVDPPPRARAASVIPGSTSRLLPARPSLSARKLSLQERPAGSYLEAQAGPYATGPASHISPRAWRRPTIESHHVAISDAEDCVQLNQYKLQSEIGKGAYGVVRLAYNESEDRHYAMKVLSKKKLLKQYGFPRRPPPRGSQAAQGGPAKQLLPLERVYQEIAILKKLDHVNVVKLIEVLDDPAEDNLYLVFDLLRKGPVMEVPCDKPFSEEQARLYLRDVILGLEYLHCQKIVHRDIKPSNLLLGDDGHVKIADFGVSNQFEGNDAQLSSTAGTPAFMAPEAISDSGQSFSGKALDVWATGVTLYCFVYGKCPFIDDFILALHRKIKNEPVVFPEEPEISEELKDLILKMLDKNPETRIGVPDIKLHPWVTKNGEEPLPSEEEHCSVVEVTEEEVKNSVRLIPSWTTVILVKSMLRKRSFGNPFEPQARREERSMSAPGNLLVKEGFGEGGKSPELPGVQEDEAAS
Sequence of Muscarinic acetylcholine receptor M1 (Homo sapiens) (P11229 whole entry): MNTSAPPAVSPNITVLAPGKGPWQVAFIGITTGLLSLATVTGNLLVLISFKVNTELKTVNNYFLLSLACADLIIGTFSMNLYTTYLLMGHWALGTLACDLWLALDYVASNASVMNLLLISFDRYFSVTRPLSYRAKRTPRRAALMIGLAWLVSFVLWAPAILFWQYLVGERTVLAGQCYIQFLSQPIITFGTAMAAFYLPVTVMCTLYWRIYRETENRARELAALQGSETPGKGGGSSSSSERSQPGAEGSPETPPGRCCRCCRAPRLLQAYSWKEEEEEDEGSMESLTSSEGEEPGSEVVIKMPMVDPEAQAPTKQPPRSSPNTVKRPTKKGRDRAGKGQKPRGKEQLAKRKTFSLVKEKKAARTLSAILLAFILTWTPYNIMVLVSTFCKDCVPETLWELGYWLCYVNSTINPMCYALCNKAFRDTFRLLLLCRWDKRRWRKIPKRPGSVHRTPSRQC
Sequence of Tyrosine-protein kinase Yes (Homo sapiens) (P07947 2-543 limits assumed): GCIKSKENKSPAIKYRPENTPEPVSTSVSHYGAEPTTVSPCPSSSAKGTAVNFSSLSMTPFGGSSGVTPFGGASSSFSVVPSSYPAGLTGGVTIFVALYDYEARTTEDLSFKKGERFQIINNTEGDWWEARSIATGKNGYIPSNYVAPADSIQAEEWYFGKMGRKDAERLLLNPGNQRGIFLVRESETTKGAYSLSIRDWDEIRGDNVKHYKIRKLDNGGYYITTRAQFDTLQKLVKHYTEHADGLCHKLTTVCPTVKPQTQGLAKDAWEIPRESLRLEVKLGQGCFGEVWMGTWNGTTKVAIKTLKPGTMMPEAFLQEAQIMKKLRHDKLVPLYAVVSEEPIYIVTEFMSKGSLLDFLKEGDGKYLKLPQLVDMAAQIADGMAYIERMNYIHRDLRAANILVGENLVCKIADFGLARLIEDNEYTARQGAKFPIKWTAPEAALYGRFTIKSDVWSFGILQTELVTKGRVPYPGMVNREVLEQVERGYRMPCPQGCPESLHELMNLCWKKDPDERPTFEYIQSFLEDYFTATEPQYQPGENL
Sequence of Bone morphogenetic protein receptor type-1B (Homo sapiens) (O00238 whole entry): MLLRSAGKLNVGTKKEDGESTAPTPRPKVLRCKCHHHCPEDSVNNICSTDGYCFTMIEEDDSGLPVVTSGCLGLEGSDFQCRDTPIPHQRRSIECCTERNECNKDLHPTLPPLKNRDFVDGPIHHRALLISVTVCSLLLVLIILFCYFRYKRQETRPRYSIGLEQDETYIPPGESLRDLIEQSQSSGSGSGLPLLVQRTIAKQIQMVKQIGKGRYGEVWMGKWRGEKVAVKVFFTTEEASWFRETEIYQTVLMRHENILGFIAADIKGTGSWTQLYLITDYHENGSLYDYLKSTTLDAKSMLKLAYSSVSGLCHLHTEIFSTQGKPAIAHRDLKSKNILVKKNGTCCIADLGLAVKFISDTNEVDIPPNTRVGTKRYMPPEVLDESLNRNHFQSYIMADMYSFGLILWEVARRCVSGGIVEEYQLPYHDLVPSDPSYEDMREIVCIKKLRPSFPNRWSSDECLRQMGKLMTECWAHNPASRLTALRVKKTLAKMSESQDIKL
Sequence of Ephrin type-A receptor 1 (Homo sapiens) (P21709 whole entry): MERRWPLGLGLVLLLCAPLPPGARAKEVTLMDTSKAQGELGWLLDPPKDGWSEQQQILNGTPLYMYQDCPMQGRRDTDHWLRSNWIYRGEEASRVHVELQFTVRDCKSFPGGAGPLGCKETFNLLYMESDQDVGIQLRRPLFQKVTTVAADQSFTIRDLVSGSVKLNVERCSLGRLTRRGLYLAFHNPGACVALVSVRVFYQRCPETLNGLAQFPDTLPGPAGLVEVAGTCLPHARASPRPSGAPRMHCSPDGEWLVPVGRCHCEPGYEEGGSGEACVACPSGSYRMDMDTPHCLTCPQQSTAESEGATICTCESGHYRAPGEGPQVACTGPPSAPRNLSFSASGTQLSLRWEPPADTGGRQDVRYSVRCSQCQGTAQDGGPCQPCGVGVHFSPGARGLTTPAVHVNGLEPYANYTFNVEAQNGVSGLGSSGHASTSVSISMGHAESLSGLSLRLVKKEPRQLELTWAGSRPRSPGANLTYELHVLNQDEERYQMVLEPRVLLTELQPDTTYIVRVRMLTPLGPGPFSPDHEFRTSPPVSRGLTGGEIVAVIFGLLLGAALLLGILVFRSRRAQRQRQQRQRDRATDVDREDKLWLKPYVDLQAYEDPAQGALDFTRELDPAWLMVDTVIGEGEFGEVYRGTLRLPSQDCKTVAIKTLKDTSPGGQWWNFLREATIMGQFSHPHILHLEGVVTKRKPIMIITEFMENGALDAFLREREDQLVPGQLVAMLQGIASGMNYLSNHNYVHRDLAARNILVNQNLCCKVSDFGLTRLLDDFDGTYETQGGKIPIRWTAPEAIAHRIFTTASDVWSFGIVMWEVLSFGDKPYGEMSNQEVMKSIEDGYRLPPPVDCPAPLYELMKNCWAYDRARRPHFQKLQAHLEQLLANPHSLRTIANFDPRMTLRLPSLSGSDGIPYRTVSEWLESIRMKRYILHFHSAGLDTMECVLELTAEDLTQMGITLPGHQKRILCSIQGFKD
Sequence of Mitogen-activated protein kinase kinase kinase kinase 5 (Homo sapiens) (Q9Y4K4 whole entry, looked up): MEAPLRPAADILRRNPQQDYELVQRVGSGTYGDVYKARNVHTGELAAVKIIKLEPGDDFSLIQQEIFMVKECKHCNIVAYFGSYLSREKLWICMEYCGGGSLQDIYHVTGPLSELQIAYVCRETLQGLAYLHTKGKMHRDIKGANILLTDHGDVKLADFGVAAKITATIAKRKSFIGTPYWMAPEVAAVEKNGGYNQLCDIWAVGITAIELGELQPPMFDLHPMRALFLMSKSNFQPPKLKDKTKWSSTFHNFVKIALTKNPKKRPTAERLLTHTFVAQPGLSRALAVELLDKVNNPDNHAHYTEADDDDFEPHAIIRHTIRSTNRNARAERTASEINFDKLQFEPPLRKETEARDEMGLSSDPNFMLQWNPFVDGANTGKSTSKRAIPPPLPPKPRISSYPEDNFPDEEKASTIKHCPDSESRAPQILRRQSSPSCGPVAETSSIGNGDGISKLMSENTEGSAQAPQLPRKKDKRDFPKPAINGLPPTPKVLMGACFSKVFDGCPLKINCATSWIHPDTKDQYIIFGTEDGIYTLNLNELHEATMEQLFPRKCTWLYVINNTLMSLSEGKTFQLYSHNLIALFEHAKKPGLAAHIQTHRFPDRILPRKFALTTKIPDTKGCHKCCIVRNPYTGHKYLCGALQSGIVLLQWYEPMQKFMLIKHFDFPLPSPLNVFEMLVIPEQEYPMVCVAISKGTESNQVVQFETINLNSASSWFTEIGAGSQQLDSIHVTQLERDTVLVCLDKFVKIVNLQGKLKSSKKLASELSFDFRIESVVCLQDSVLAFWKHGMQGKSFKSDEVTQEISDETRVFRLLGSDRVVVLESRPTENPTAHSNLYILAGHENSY

CC(=O)C1=C(C)N(c2cccc(C(F)(F)F)c2)C(=O)N[C@@H]1c1ccc(C#N)nc1 [BAY-678]
residual activity [1]: 100%
residual activity [2]: 100%
residual activity [3]: 74.2%
inhibition [4]: 0.569%
residual activity [5]: 88.3%
residual activity [6]: 93.3%
residual activity [7]: 93.6%
residual activity [8]: 100%
inhibition [9]: -4.65%
inhibition (Rattus norvegicus): 20%
residual activity [10]: 100%
residual activity [11]: 48.7%
inhibition [12]: 10.5%
residual activity [13]: 100%
residual activity [14]: 100%
residual activity [15]: 99.3%
residual activity [16]: 81.1%
residual activity [17]: 100%
residual activity [18]: 82.9%
residual activity [19]: 100%
residual activity [20]: 100%
residual activity [21]: 100%
residual activity [22]: 100%
residual activity [23]: 85.9%
inhibition [24]: -6.78%
residual activity [25]: 100%
residual activity [26]: 79.3%
residual activity [27]: 100%
residual activity [28]: 89.5%
residual activity [29]: 70.5%
residual activity [30]: 99.7%
residual activity [31]: 98.2%
residual activity [32]: 72.8%
residual activity [33]: 100%
residual activity [34]: 100%
residual activity [35]: 100%
residual activity [36]: 100%
residual activity [37]: 100%
residual activity [38]: 96.9%
residual activity [39]: 69%
residual activity [40]: 80%
residual activity [41]: 71.1%
residual activity [42]: 93.4%
residual activity [43]: 97.9%
inhibition [44]: -1.17%
